# From PubChem BioAssay AID1259407 (Chemical Carcinogenesis Research Information System (CCRIS), 2018)
# Calls of active or inactive are those of the source. How the calls were made is not given here.
# Test system: CCRIS mutagenicity, Ames/micronucleus/aberration tests
# Assay: CCRIS mutagenicity studies
# [1] = Test System: AMES SALMONELLA TYPHIMURIUM, Strain/Indicator: TA98, Metabolic Activation: NONE, Method: STANDARD PLATE
# [2] = Test System: AMES SALMONELLA TYPHIMURIUM, Strain/Indicator: TA100, Metabolic Activation: RAT, LIVER, S-9, AROCLOR 1254, Method: PREINCUBATION
smiles,measurement,setting,value
CSC(=O)c1cccc2nnsc12,mutagenic call,"End Point: In vivo micronucleus, Test System: Femoral bone marrow polychromatic erythrocytes, Species: Mouse, Strain/Sex: Female, Route: Gavage",inactive; negative; strain is not given by dpr reviewer
same,mutagenic call,"End Point: In vivo micronucleus, Test System: Femoral bone marrow polychromatic erythrocytes, Species: Mouse, Strain/Sex: Male, Route: Gavage",inactive; negative; strain is not given by dpr reviewer
O=C(O)/C(Cl)=C(/C(=O)O)C(Cl)Cl,mutagenic call,"Test System: AMES SALMONELLA TYPHIMURIUM, Strain/Indicator: TA97, Metabolic Activation: NONE, Method: STANDARD PLATE",inactive; negative
same,mutagenic call,"Test System: AMES SALMONELLA TYPHIMURIUM, Strain/Indicator: TA97, Metabolic Activation: RAT, LIVER, S-9, PHENOBARBITAL, Method: STANDARD PLATE",inactive; negative
same,mutagenic call,[1],inactive; negative
same,mutagenic call,"Test System: AMES SALMONELLA TYPHIMURIUM, Strain/Indicator: TA98, Metabolic Activation: RAT, LIVER, S-9, AROCLOR 1254, Method: STANDARD PLATE",inactive; negative
same,mutagenic call,"Test System: AMES SALMONELLA TYPHIMURIUM, Strain/Indicator: TA98, Metabolic Activation: RAT, LIVER, S-9, PHENOBARBITAL, Method: STANDARD PLATE",inactive; negative
same,mutagenic call,"Test System: AMES SALMONELLA TYPHIMURIUM, Strain/Indicator: TA100, Metabolic Activation: RAT, LIVER, S-9, AROCLOR 1254, Method: STANDARD PLATE",inactive; negative
same,mutagenic call,"Test System: AMES SALMONELLA TYPHIMURIUM, Strain/Indicator: TA100, Metabolic Activation: RAT, LIVER, S-9, PHENOBARBITAL, Method: STANDARD PLATE",inactive; negative
same,mutagenic call,"Test System: AMES SALMONELLA TYPHIMURIUM, Strain/Indicator: TA102, Metabolic Activation: NONE, Method: STANDARD PLATE",inactive; negative
same,mutagenic call,"Test System: AMES SALMONELLA TYPHIMURIUM, Strain/Indicator: TA102, Metabolic Activation: RAT, LIVER, S-9, AROCLOR 1254, Method: STANDARD PLATE",inactive; negative
O=[N+]([O-])c1c2c(cc3ccccc13)[C@@H](O)[C@H](O)C=C2,mutagenic call,[1],active; positive
same,mutagenic call,"Test System: AMES SALMONELLA TYPHIMURIUM, Strain/Indicator: TA98, Metabolic Activation: RAT, LIVER, S-9, Method: STANDARD PLATE",active; positive
same,mutagenic call,"Test System: AMES SALMONELLA TYPHIMURIUM, Strain/Indicator: TA100, Metabolic Activation: NONE, Method: STANDARD PLATE",inactive; negative
same,mutagenic call,"Test System: AMES SALMONELLA TYPHIMURIUM, Strain/Indicator: TA100, Metabolic Activation: RAT, LIVER, S-9, Method: STANDARD PLATE",inactive; negative
O=[N+]([O-])C1c2ccccc2-c2ccccc21,mutagenic call,"End Point: IN VITRO CHROMOSOMAL ABERRATIONS, Test System: CHINESE HAMSTER LUNG (CHL) CELLS, Metabolic Activation: NONE",active; positive
same,mutagenic call,"End Point: IN VITRO CHROMOSOMAL ABERRATIONS, Test System: CHINESE HAMSTER LUNG (CHL) CELLS, Metabolic Activation: NONE, Method: FISH",active; positive
same,mutagenic call,"End Point: IN VITRO CHROMOSOMAL ABERRATIONS, Test System: CHINESE HAMSTER LUNG (CHL) CELLS, Metabolic Activation: RAT, LIVER, S-9, KC-400",active; positive
same,mutagenic call,"Test System: E. COLI, Strain/Indicator: WP2 UVRA, Metabolic Activation: NONE, Method: FLUCTUATION",active; positive
FC(F)(Br)C(F)(F)I,mutagenic call,"Test System: Ames Salmonella typhimurium, Strain/Indicator: TA98, Metabolic Activation: None, Method: Preincubation",inactive; negative
same,mutagenic call,"Test System: Ames Salmonella typhimurium, Strain/Indicator: TA98, Metabolic Activation: Rat, Liver, S9, Sodium phenobarbital and 5,6-benzoflavone (10%), Method: Preincubation",inactive; negative
same,mutagenic call,"Test System: Ames Salmonella typhimurium, Strain/Indicator: TA100, Metabolic Activation: None, Method: Preincubation",inactive; negative
same,mutagenic call,"Test System: Ames Salmonella typhimurium, Strain/Indicator: TA100, Metabolic Activation: Rat, Liver, S9, Sodium phenobarbital and 5,6-benzoflavone (10%), Method: Preincubation",inactive; negative
same,mutagenic call,"Test System: Ames Salmonella typhimurium, Strain/Indicator: TA1535, Metabolic Activation: None, Method: Preincubation",active; positive
same,mutagenic call,"Test System: Ames Salmonella typhimurium, Strain/Indicator: TA1535, Metabolic Activation: Rat, Liver, S9, Sodium phenobarbital and 5,6-benzoflavone (10%), Method: Preincubation",active; positive
same,mutagenic call,"Test System: Ames Salmonella typhimurium, Strain/Indicator: TA1537, Metabolic Activation: None, Method: Preincubation",inactive; negative
same,mutagenic call,"Test System: Ames Salmonella typhimurium, Strain/Indicator: TA1537, Metabolic Activation: Rat, Liver, S9, Sodium phenobarbital and 5,6-benzoflavone (10%), Method: Preincubation",inactive; negative
same,mutagenic call,"Test System: E. coli, Strain/Indicator: WP2uvrA/pKM101, Metabolic Activation: None, Method: Preincubation",active; positive
same,mutagenic call,"Test System: E. coli, Strain/Indicator: WP2uvrA/pKM101, Metabolic Activation: Rat, Liver, S9, Sodium phenobarbital and 5,6-benzoflavone (10%), Method: Preincubation",active; positive
ClC(Cl)(Cl)C(Cl)(Cl)Cl,mutagenic call,"End Point: IN VITRO CHROMOSOMAL ABERRATIONS, Test System: CHINESE HAMSTER OVARY CELLS, Metabolic Activation: RAT, LIVER, S-9, AROCLOR 1254",inactive; negative; precipitation occurred at all doses
same,mutagenic call,"Test System: AMES SALMONELLA TYPHIMURIUM, Strain/Indicator: TA98, Metabolic Activation: HAMSTER, LIVER, S-9, AROCLOR 1254, Method: PREINCUBATION",inactive; negative
same,mutagenic call,"Test System: AMES SALMONELLA TYPHIMURIUM, Strain/Indicator: TA98, Metabolic Activation: NONE, Method: PREINCUBATION",inactive; negative
same,mutagenic call,"Test System: AMES SALMONELLA TYPHIMURIUM, Strain/Indicator: TA98, Metabolic Activation: RAT, LIVER, S-9, AROCLOR 1254, Method: PREINCUBATION",inactive; negative
same,mutagenic call,"Test System: AMES SALMONELLA TYPHIMURIUM, Strain/Indicator: TA100, Metabolic Activation: HAMSTER, LIVER, S-9, AROCLOR 1254, Method: PREINCUBATION",inactive; negative
same,mutagenic call,"Test System: AMES SALMONELLA TYPHIMURIUM, Strain/Indicator: TA100, Metabolic Activation: NONE, Method: PREINCUBATION",inactive; negative
same,mutagenic call,[2],inactive; negative
same,mutagenic call,"Test System: AMES SALMONELLA TYPHIMURIUM, Strain/Indicator: TA1535, Metabolic Activation: HAMSTER, LIVER, S-9, AROCLOR 1254, Method: PREINCUBATION",inactive; negative
same,mutagenic call,"Test System: AMES SALMONELLA TYPHIMURIUM, Strain/Indicator: TA1535, Metabolic Activation: NONE, Method: PREINCUBATION",inactive; negative
same,mutagenic call,"Test System: AMES SALMONELLA TYPHIMURIUM, Strain/Indicator: TA1535, Metabolic Activation: RAT, LIVER, S-9, AROCLOR 1254, Method: PREINCUBATION",inactive; negative
same,mutagenic call,"Test System: AMES SALMONELLA TYPHIMURIUM, Strain/Indicator: TA1537, Metabolic Activation: HAMSTER, LIVER, S-9, AROCLOR 1254, Method: PREINCUBATION",inactive; negative
same,mutagenic call,"Test System: AMES SALMONELLA TYPHIMURIUM, Strain/Indicator: TA1537, Metabolic Activation: NONE, Method: PREINCUBATION",inactive; negative
same,mutagenic call,"Test System: AMES SALMONELLA TYPHIMURIUM, Strain/Indicator: TA1537, Metabolic Activation: RAT, LIVER, S-9, AROCLOR 1254, Method: PREINCUBATION",inactive; negative
Fc1cnc2ccccc2c1,mutagenic call,"End Point: In vitro Chromosomal aberrations, Test System: Chinese hamster lung fibroblast cells (CHL/IU), Metabolic Activation: Rat, liver, S-9",active; positive (information derived from a figure)
same,mutagenic call,"End Point: In vitro Micronucleus, Test System: Chinese hamster lung fibroblast cells (CHL/IU), Metabolic Activation: Rat, liver, S-9",active; positive (information derived from a figure)
same,mutagenic call,"Test System: AMES SALMONELLA TYPHIMURIUM, Strain/Indicator: TA100, Metabolic Activation: RAT LIVER S-9, PHENOBARBITAL AND 5,6-BENZOFLAVONE, Method: PREINCUBATION",inactive; negative
same,mutagenic call,[2],inactive; negative
same,mutagenic call,"Test System: AMES SALMONELLA TYPHIMURIUM, Strain/Indicator: TA100, Metabolic Activation: RAT, LIVER, S-9, PHENOBARBITAL AND 5,6-BENZOFLAVONE, Method: PREINCUBATION",inactive; negative
same,mutagenic call,"Test System: AMES SALMONELLA TYPHIMURIUM, Strain/Indicator: TA100, Metabolic Activation: RAT, LIVER, S-9, PHENOBARBITAL AND 5,6-NAPHTHOFLAVONE, Method: PREINCUBATION",inactive; negative
same,mutagenic call,"Test System: AMES SALMONELLA, Strain/Indicator: TA100, Metabolic Activation: RAT, LIVER, S-9, PHENOBARBITAL AND 5,6-BENZOFLAVONE, Method: PREINCUBATION",inactive; negative
same,mutagenic call,"Test System: UDS RODENT HEPATOCYTES, Strain/Indicator: THY INCORP (NON-S-PHASE), Metabolic Activation: NONE, Method: AUTORADIOGRAPHY",inactive; negative
Cc1ccc2cc3ccc4ccccc4c3cc2c1,mutagenic call,"Test System: AMES SALMONELLA TYPHIMURIUM, Strain/Indicator: TA100, Metabolic Activation: RAT, INTACT HEPATOCYTES, AROCLOR 1254, Method: PREINCUBATION",active; positive
same,mutagenic call,"Test System: AMES SALMONELLA TYPHIMURIUM, Strain/Indicator: TA100, Metabolic Activation: RAT, NADPH-FORTIFIED HOMOGENIZED HEPATOCYTES, AROCLOR 1254, Method: PREINCUBATION",active; positive
same,mutagenic call,"Test System: AMES SALMONELLA TYPHIMURIUM, Strain/Indicator: TA100, Metabolic Activation: RAT, SONICATED HEPATOCYTES, AROCLOR 1254, Method: PREINCUBATION",active; positive
Oc1ccc2c(O)cccc2c1,mutagenic call,"Test System: AMES SALMONELLA TYPHIMURIUM, Strain/Indicator: TA102, Metabolic Activation: NONE, Method: PREINCUBATION",active; positive
same,mutagenic call,"Test System: AMES SALMONELLA TYPHIMURIUM, Strain/Indicator: TA2637, Metabolic Activation: RAT, LIVER, S-9, PHENOBARBITAL AND 5,6-BENZOFLAVONE, Method: PREINCUBATION",active; positive
